Experimental data reported in ChEMBL document CHEMBL1152907, “Synthesis and cytotoxicities of icogenin analogues with disaccharide residues” (Bioorg Med Chem Lett, 2009).

Tests used:
Format in all cases: functional, cell-based
Capan-2 = test: Cytotoxicity against human Capan2 cells after 72 hrs by MTT assay; settings: Capan-2, 72 h
MCF7 = test: Cytotoxicity against human MCF7 cells after 72 hrs by MTT assay; settings: MCF7, 72 h
HCT-8 = test: Cytotoxicity against human HCT8 cells after 72 hrs by MTT assay; settings: HCT-8, 72 h
SW1990 = test: Cytotoxicity against human SW1990 cells after 72 hrs by MTT assay; settings: SW1990, 72 h
A549 = test: Cytotoxicity against human A549 cells after 72 hrs by MTT assay; settings: A549, 72 h
PANC-1 = test: Cytotoxicity against human PANC1 cells after 72 hrs by MTT assay; settings: PANC-1, 72 h
A2780 = test: Cytotoxicity against human A2780 cells after 72 hrs by MTT assay; settings: A2780, 72 h
BXPC-3 = test: Cytotoxicity against human BxPC3 cells after 72 hrs by MTT assay; settings: BXPC-3, 72 h
Bel-7402 = test: Cytotoxicity against human Bel7402 cells after 72 hrs by MTT assay; settings: Bel-7402, 72 h
HL-60 = test: Cytotoxicity against human HL60 cells after 72 hrs; settings: HL-60, 72 h

SMILES | IC50 (Capan-2) | IC50 (MCF7) | IC50 (HCT-8) | IC50 (SW1990) | IC50 (A549) | IC50 (PANC-1) | IC50 (A2780) | IC50 (BXPC-3) | IC50 (Bel-7402) | IC50 (HL-60)
CO[C@]1(CC[C@@H](C)CO)O[C@H]2C[C@H]3[C@@H]4CC=C5C[C@@H](O[C@H]6O[C@H](CO)[C@@H](O)[C@H](O[C@@H]7O[C@H](CO)[C@@H](O)[C@H](O)[C@H]7O)[C@H]6O[C@@H]6O[C@@H](C)[C@H](O)[C@@H](O)[C@H]6O)CC[C@]5(C)[C@H]4CC[C@]3(C)[C@H]2[C@@H]1C | 1100 nM | 1200 nM | 1300 nM | 900 nM | 890 nM | 820 nM | 7100 nM | 1000 nM | 920 nM | 
CO[C@]1(CC[C@@H](C)CO)O[C@H]2C[C@H]3[C@@H]4CC=C5C[C@@H](O[C@@H]6O[C@H](CO)[C@@H](O)[C@H](O)[C@H]6O[C@@H]6O[C@@H](C)[C@H](O)[C@@H](O)[C@H]6O)CC[C@]5(C)[C@H]4CC[C@]3(C)[C@H]2[C@@H]1C | 1070 nM | 2890 nM | 1020 nM | 660 nM | 1080 nM | 830 nM | 7200 nM | 1010 nM | 900 nM | 
CO[C@]1(CC[C@@H](C)CO)O[C@H]2C[C@H]3[C@@H]4CC=C5C[C@@H](O[C@H]6O[C@H](CO)[C@@H](O)[C@H](O)[C@H]6O[C@@H]6O[C@@H](C)[C@H](O)[C@@H](O)[C@H]6O)CC[C@]5(C)[C@H]4CC[C@]3(C)[C@H]2[C@@H]1C | 1360 nM | 2650 nM | 1260 nM | 730 nM | 1480 nM | 870 nM | 7800 nM | 1040 nM | 940 nM | 
C[C@@H]1CC[C@@]2(OC1)O[C@H]1C[C@H]3[C@@H]4CC=C5C[C@@H](O[C@H]6O[C@H](CO)[C@@H](O)[C@H](O)[C@H]6O[C@@H]6O[C@@H](C)[C@H](O)[C@@H](O)[C@H]6O)CC[C@]5(C)[C@H]4CC[C@]3(C)[C@H]1[C@@H]2C | > 10000 nM | > 10000 nM | > 10000 nM | > 10000 nM | > 10000 nM | > 10000 nM | > 10000 nM | > 10000 nM | > 10000 nM | 
C[C@@H]1CC[C@@]2(OC1)O[C@H]1C[C@H]3[C@@H]4CC=C5C[C@@H](O[C@@H]6O[C@H](CO)[C@@H](O[C@@H]7O[C@@H](C)[C@H](O)[C@@H](O)[C@H]7O)[C@H](O)[C@H]6O[C@@H]6O[C@@H](C)[C@H](O)[C@@H](O)[C@H]6O)CC[C@]5(C)[C@H]4CC[C@]3(C)[C@H]1[C@@H]2C [DIOSCIN] | 50 nM | 1030 nM | 560 nM | 500 nM | 700 nM | 810 nM | 4460 nM | 700 nM | 230 nM | 
Nc1ccn([C@@H]2O[C@H](CO)[C@@H](O)C2(F)F)c(=O)n1 [GEMCITABINE] | 1700 nM | 3280 nM | 1740 nM | 1200 nM | 1400 nM | 5600 nM | 310 nM | 2900 nM | 840 nM | 
C[C@@H]1CC[C@@]2(OC1)O[C@H]1C[C@H]3[C@@H]4CC=C5C[C@@H](O[C@@H]6O[C@H](CO)[C@@H](O)[C@H](O[C@@H]7O[C@H](CO)[C@@H](O)[C@H](O)[C@H]7O)[C@H]6O[C@@H]6O[C@@H](C)[C@H](O)[C@@H](O)[C@H]6O)CC[C@]5(C)[C@H]4CC[C@]3(C)[C@H]1[C@@H]2C [GRACILLIN] | 1300 nM | 17500 nM | 920 nM | 1100 nM | 960 nM | 700 nM | 4300 nM | 1300 nM | 1100 nM | 
CO[C@]1(CC[C@@H](C)CO)O[C@H]2C[C@H]3[C@@H]4CC=C5C[C@@H](O[C@@H]6O[C@H](CO)[C@@H](O)[C@H](O[C@@H]7O[C@H](CO)[C@@H](O)[C@H](O)[C@H]7O)[C@H]6O[C@@H]6O[C@@H](C)[C@H](O)[C@@H](O)[C@H]6O)CC[C@]5(C)[C@H]4CC[C@]3(C)[C@H]2[C@@H]1C [ICOGENIN(BETA)] | 1100 nM | 1070 nM | 930 nM | 1000 nM | 1860 nM | 840 nM | 920 nM | 1100 nM | 860 nM | 2600 nM
C[C@@H]1CC[C@@]2(OC1)O[C@H]1C[C@H]3[C@@H]4CC=C5C[C@@H](O[C@@H]6O[C@H](CO)[C@@H](O)[C@H](O[C@@H]7O[C@@H](C)[C@H](O)[C@@H](O)[C@H]7O)[C@H]6O)CC[C@]5(C)[C@H]4CC[C@]3(C)[C@H]1[C@@H]2C [POLYPHILLIN C] | 2700 nM | 3450 nM | 4160 nM | 5400 nM | 2300 nM | 11800 nM | > 10000 nM | > 10000 nM | > 10000 nM | 
